Here are results for 1 molecule from US20240315985A1 (Dermavant Sciences GmbH, priority 2021, published 2024).

The test system of data set [1] is plaque psoriasis in adults. Briefly: Physician Global Assessment (PGA), long-term open-label extension study (PSOARING 3) of tapinarof cream, 1%. The class given is in vivo, human. The source says:
This extension study consisted of up to 40 weeks of treatment and a 4 week, safety follow up period.
The PGA was used to assess the primary efficacy endpoint in this study. The PGA is a clinical tool for assessing the current state/severity of a subject's psoriasis at a given time point. It is a static, 5 point, morphological assessment of overall disease severity, as determined by the Investigator, using the clinical characteristics of erythema, scaling, and plaque thickness/elevation as guidelines; higher PGA scores represent more severe disease (0=clear, 1=almost clear, 2=mild, 3=moderate, and 4=severe). The BSA affected was not considered in scoring of the PGA. Variations of the PGA are frequently used in clinical studies because it is a simple assessment, similar to those used in clinical practice. The PGA was performed first, prior to the % BSA, PASI, and LTS assessments.
Time to event parameters, such as the time from treatment success to subsequent worsening (PGA≥2) or duration of treatment episode, were summarized by the Kaplan Meier product limit method using OC.

Data set [2] deals with plaque psoriasis in adults. The data set is described as follows: Safety: adverse events (AEs, TEAEs, AESIs, SAEs), extension study. Format: in vivo, human. The source says:
Endpoints: Incidence, frequency, and nature of AEs, adverse events of special interest (AESIs), and serious adverse events (SAEs), Change over time in clinical laboratory tests and frequency of clinically significant abnormal test results, Change over time in vital signs and frequency of clinically significant abnormal results, Local Tolerability Scale (LTS) scores by severity summarized by visit.
Safety assessments included AEs, AESIs, SAEs, local (application site) tolerability, clinical laboratory tests, vital signs, physical examinations, and Investigator assessed LTS. Efficacy assessments included a 5 point static PGA (0 [clear], 1 [almost clear], 2 [mild], 3 [moderate], 4 [severe]), % BSA affected, the PASI, and subject reported DLQI.

Data set [3] is described as follows: Plasma concentrations, maximal use study with serial PK sampling. The following applies: between Days 1 and 29. Format: in vivo, human. From the text: This unique PK profile is characterized by the highest plasma concentrations being observed on the first day or week of the treatment period followed by a subsequent decline to undetectable or near undetectable levels in the plasma after multiple weeks of dosing.
(FIG. 2). This decline is further supported by serial PK data collected from previous clinical studies over 28 days of dosing and over 21 days of dosing.

The nature of data set [4]: Preclinical repeat dosing study, systemic exposure. The class given is in vivo. The following applies: CYP1A1/2 induced in skin or liver. The source says:
The reason for the decrease in plasma concentrations over time is unknown. Without wishing to be bound by theory, as the skin heals, there may be less penetration of the drug through the stratum corneum and into the systemic circulation since the barrier is restored.

Another data set relates to psoriasis. The data set is described as follows: 12-week phase 2b trial in psoriasis, maintenance after treatment cessation. Format: in vivo, human. From the text:
As mentioned, tapinarof is a novel therapeutic aryl hydrocarbon receptor modulating agent (TAMA) in clinical development for the topical treatment of psoriasis and atopic dermatitis. […] AhR modulates T cell responses both through intrinsic control of T cell subset differentiation and via controlling the function of antigen presenting cells. In addition, AhR signaling promotes the conversion of Th17 cells to type 1 regulatory T cells. Aberrant immune responses underpin the pathogenesis of both PsO and AD, and the wide expression of AhR in immune cells makes it an attractive target given the essential role of AhR in regulating inflammatory responses and skin homeostasis. […] These clinical data support the role of AhR in skin immune homeostasis. Given the multitude of AhR-dependent immunoregulatory mechanisms, AhR is an attractive target for novel immunotherapies with the potential to extend therapeutic efficacy following treatment discontinuation; this may provide a unique clinical benefit to patients.

In the case of `CC(C)c1c(O)cc(/C=C/c2ccccc2)cc1O` [tapinarof, 3,5-Dihydroxy-4-isopropyl-trans-stilbene], in data set [1] (Vehicle→Tapinarof, Wk. 0), the “Durability of Response, No. of Subjects” value is on record as 22. Also, in data set [1] (patients with complete disease clearance (PGA=0)), the “Remittive effect off therapy” value was “approximately 4 months”. Moreover, in data set [2] (Overall (n = 763)), the “Study discontinuation due to AESI: Dermatitis contact, Patients, %” value was “(1.4) %”; the “Study discontinuation due to AESI: Folliculitis, Patients, %” value is “(1.2) %”; the “Study discontinuation due to TEAEs, Patients, %” value is on record as “(5.4) %”; the “Treatment-emergent AESI: Dermatitis contact, Patients, %” value is “(5.9) %”. In data set [2] (Overall (n = 763)), the “Treatment-emergent AESI: Folliculitis, Patients, %” value is listed as “(24.0) %” and the “Treatment-emergent AESI: Headache, Patients, %” value is recorded as “(2.0) %”. In data set [2] (Tapinarof→Tapinarof (n = 508)), the “Study discontinuation due to AESI: Dermatitis contact, Patients, %” value is recorded as “(1.4) %”; the “Study discontinuation due to AESI: Folliculitis, Patients, %” value was “(1.2) %”; the “Study discontinuation due to TEAEs, Patients, %” value is listed as “(5.1) %”; the “Treatment-emergent AESI: Dermatitis contact, Patients, %” value is on record as “(4.7) %”. Besides, in data set [2] (Tapinarof→Tapinarof (n = 508)), the “Treatment-emergent AESI: Folliculitis, Patients, %” value is on record as “(24.4) %” and the “Treatment-emergent AESI: Headache, Patients, %” value is “(2.0) %”. In data set [2] (Vehicle→Tapinarof (n = 255)), the “Study discontinuation due to AESI: Dermatitis contact, Patients, %” value is on record as “(1.6) %”; the “Study discontinuation due to AESI: Folliculitis, Patients, %” value was “(1.2) %”; the “Study discontinuation due to TEAEs, Patients, %” value is given as “(5.9) %”; the “Treatment-emergent AESI: Dermatitis contact, Patients, %” value is recorded as “(8.2) %”. For the same molecule, in data set [2] (Vehicle→Tapinarof (n = 255)), the “Treatment-emergent AESI: Folliculitis, Patients, %” value is “(23.1) %” and the “Treatment-emergent AESI: Headache, Patients, %” value is on record as “(2.0) %”. In data set [3], the “Decline in plasma concentrations of tapinarof” value is reported as 10 fold. The “Change in systemic exposures with repeat dosing compared to single doses” value in data set [4] (minipigs) is on record as “no changes in systemic exposures”. Besides, the “Change in systemic exposures with repeat dosing compared to single doses” value in data set [4] (rats) is reported as “no changes in systemic exposures”. Besides, the “Time efficacy was maintained after treatment cessation” value with psoriasis is listed as “four”.
